Source: article PMC2600610, “Ir-LBP, an Ixodes ricinus Tick Salivary LTB4-Binding Lipocalin, Interferes with Host Neutrophil Function” (PLoS ONE, 2008)

Experiments:
neutrophils [1] = test system: neutrophils; design: method as in PMID 12770944, PMID 10588632; conditions: BLT1 antagonists; cited from earlier work
Ir-LBP [2] = biological target: T1, Ir-LBP (Ixodes ricinus, UniProt B7ZDG7); test: Competitive binding: inhibition of 3H-LTB4 binding to Ir-LBP by eicosanoids; conditions: 2 h; for decrease of the binding of 1 nM 3H-LTB4 to Ir-LBP: competitor at 10 µM
T1 sequence (B7ZDG7 20-200 limits assumed): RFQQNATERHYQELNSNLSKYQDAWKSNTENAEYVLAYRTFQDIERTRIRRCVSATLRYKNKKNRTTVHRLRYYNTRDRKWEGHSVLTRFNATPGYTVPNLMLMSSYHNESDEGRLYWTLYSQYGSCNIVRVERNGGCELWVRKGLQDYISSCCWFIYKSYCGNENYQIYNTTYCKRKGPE
Experimental: The specificity of this binding was then evaluated by incubating Ir-LBP with increasing concentrations of different eicosanoids (LTB4, LTD4, LTC4, LTE4, 12(R)-hydroxyeicosatetraenoic acid (HETE), 15(S)-hydroxyperoxyeicosatetraenoic acid (HpETE), LTA4 methyl ester and 5 (S), 6 (R)-Lipoxin A4) in the presence of a fixed concentration of ^3H-LTB4 (Figure 1B). […] On the other hand, only at a very high concentration of 10 µM were LTD4, LTE4 and 12(R)-HETE able to decrease the binding of 1 nM of ^3H-LTB4 to Ir-LBP by approximately 30%. […] Furthermore, this interaction is reversible. The addition of an excess of cold LTB4 (10 µM) for 2 h displaces the binding between Ir-LBP and 1 nM of ^3H-LTB4 (data not shown). […] This binding may only be displaced by very high concentrations (10 µM versus nM) of eicosanoid analogs.
(§1) The dissociation constant was measured in PBS (pH 7.4) using purified Ir-LBP and an increasing amount of ^3H-LTB4. Non-specific binding was determined by measuring bound radioactivity in the absence of Ir-LBP. Protein precipitation with polyethylene glycol 8000 was used to separate bound from free histamine. Protein-bound radioactivity was determined with a Wallac 1409 scintillation counter. Saturation experiments were analyzed by non-linear regression using the curve fitting program GraphPad Prism® (GraphPad software, San Diego, CA, U.S.A.), B = (Bmax [F])/KD+[F]), where B is the amount of bound ligand at equilibrium, Bmax is the maximum number of binding sites, [F] is the concentration of free ligand and KD is the ligand dissociation constant. Competitive binding assays were performed using purified Ir-LBP with 1 nM of ^3H-LTB4 and an increasing amount of unlabelled competitor for 2 h.

neutrophils [3] = test system: neutrophils; design: method as in PMID 9261334; conditions: BLT1 and BLT2 antagonist; cited from earlier work
R53T = test system: T2, R53T; test: Saturation binding of ^3H-LTB4 (PBS pH 7.4, PEG 8000 precipitation) to wild-type and mutant Ir-LBP expressed in 293T cells.; conditions: SD
T2 construct: pCDNA3.1/V5-His-TOPO, expressed in 293T cells
Excerpt: (§2) In order to determine which amino acids of Ir-LBP are involved in the binding to LTB4, we produced mutants designed on the basis of the dynamic model established in silico. […] For the interaction with the second hydroxyl group, the residue selected to be mutated is Arg 73. The choice was made on this residue because Glu 188 is conserved for all LIRs and should thus not be as specific as Arg 73; furthermore, Arg 53 is bridged to Arg 73 by an aspartic residue from the loop corresponding to the Ω loop in Ra-HBP2. The two hydroxyl groups and the two Arg bridged by Asp Ω could form an interacting network, further stabilizing the binding with LTB4. Two single mutants were therefore produced by replacing Arg 53 with threonine (R53T) and Arg 73 with alanine (R73A). A double mutant (R53T/R73A) was also produced by combining the 2 substitutions of the single mutants. A null mutant was also constructed by replacing serine 124 with threonine (S124T). […] Therefore, the affinity of this mutant for LTB4 should not be affected. These mutants and “wild type” Ir-LBP were expressed in 293T cells, and analyzed to determine their dissociation constant for LTB4.
(§3) Site-directed mutagenesis of Ir-LBP in pCDNA3.1/V5-His-TOPO
(§4) Subconfluent 293T cells in 35-mm diameter wells (Orange Scientific) were transfected with […] plasmid DNA and […] Fugene 6 (Roche Biochemicals) in Dulbecco's modified Eagle's medium (DMEM, Invitrogen) without FCS. The medium was harvested after 72 h. Pooled supernatants were cleared by centrifugation, concentrated 10-fold by filtration on 10000 NMWL membranes (Millipore), ultracentrifuged at 140,000 g before use, and finally stored at −80°C. Concentrated culture supernatants were analyzed by western blotting on a Hybond ECL membrane (GE healthcare) using an anti-V5 primary antibody (Invitrogen), an IgHRP conjugate as secondary antibody and the ECL detection reagent (GE healthcare) according to the manufacturer's instructions. The coding regions of Ir-LBP were amplified by PCR (94°C for 30 s, 56°C for 30 s, 72°C for 1 min.; 30 cycles) using ExTaq DNA Polymerase (Taqara). […]
as §1, with “Protein precipitation with polyethylene glycol 8000 was used to separate bound from free histamine.” left out, “Competitive binding assays were performed using purified Ir-LBP with 1 nM of ^3H-LTB4 and an increasing amount of unlabelled competitor for 2 h.” left out

S124T = test system: T3, S124T; test: as above; conditions: SD
T3 construct: pCDNA3.1/V5-His-TOPO, expressed in 293T cells
Excerpt: as §2, §3, §4
as §1, with “Protein precipitation with polyethylene glycol 8000 was used to separate bound from free histamine.” left out, “Competitive binding assays were performed using purified Ir-LBP with 1 nM of ^3H-LTB4 and an increasing amount of unlabelled competitor for 2 h.” left out

R53T/R73A = test system: T4, R53T/R73A; test: as above; conditions: SD
T4 construct: pCDNA3.1/V5-His-TOPO, expressed in 293T cells
Excerpt: as §2, §3, §4
as §1, with “Protein precipitation with polyethylene glycol 8000 was used to separate bound from free histamine.” left out, “Competitive binding assays were performed using purified Ir-LBP with 1 nM of ^3H-LTB4 and an increasing amount of unlabelled competitor for 2 h.” left out

R73A = test system: T5, R73A; test: as above; conditions: SD
T5 construct: pCDNA3.1/V5-His-TOPO, expressed in 293T cells
Excerpt: as §2, §3, §4
as §1, with “Protein precipitation with polyethylene glycol 8000 was used to separate bound from free histamine.” left out, “Competitive binding assays were performed using purified Ir-LBP with 1 nM of ^3H-LTB4 and an increasing amount of unlabelled competitor for 2 h.” left out

BLT1 = biological target: BLT1; design: method as in PMID 6097945, PMID 6323613, PMID 2823316; conditions: read-out: Kd of BLT1 for LTB4; cited from earlier work
Ir-LBP [4] = biological target: T1, Ir-LBP; test: Saturation curve and Scatchard analysis for LTB4 binding to Ir-LBP (Figure 1A), ligand as substance; conditions: saturation curve, 3H-LTB4
Human neutrophils = test: Neutrophil apoptosis assay (Annexin-V-FITC/PI, flow cytometry); type: cell-based; conditions: LTB4 10^-7 M, 24 h of culture
Experimental: Human blood neutrophils were obtained from buffy coats (Transfusion Center, Liege, Belgium). Neutrophils were separated from mononuclear cells by density centrifugation (Histopaque; Sigma-Aldrich). Contaminating erythrocytes were removed from the neutrophil fraction by hypotonic lysis. Neutrophil purity, determined by counting cytospin preparations stained with Diff-Quick (Dade Behring), was always >95%. Neutrophils were cultured at a density of 2×10^6 cells/ml in RPMI-1640 supplemented with 1% glutamine, 10% FCS, 50 µg/ml streptomycin, and 50 IU/ml penicillin (all from Gibco BRL). Neutrophils were cultured in the absence or presence of 10^−7 M LTB4 (Sigma-Aldrich) and/or 0.2–2 µg/ml Ir-LBP.
Apoptosis was assessed by staining with Annexin-V-FITC and propidium iodide (PI) using the Annexin-V-FLUOS staining kit (Roche), following the manufacturer's recommendations. Flow cytometry analyses were performed with a FACSAria™ (BD Biosciences).

BLT2 = biological target: BLT2; design: method as in PMID 10934230; conditions: read-out: Kd of BLT2 for LTB4; cited from earlier work

Structure (SMILES): O=C(O)C1(c2ccc3c(c2)OC[C@H](Cc2ccc(-c4ccccc4)cc2)[C@H]3O)CCCC1 [CP-105696]
- inhibition of the apoptosis delay induced by LTB4 (neutrophils [1]): capable of inhibiting

Structure (SMILES): CCCCC/C=C\C\C=C/C=C/C=C/[C@@H](SC[C@H](NC(=O)CC[C@H](N)C(=O)O)C(=O)NCC(=O)O)[C@@H](O)CCCC(=O)O [LTC4]
- decrease of the binding of 1 nM 3H-LTB4 to Ir-LBP (Ir-LBP [2]): unable to compete

Structure (SMILES): COc1ccc(CCCCCCCCOc2ccc(C[S+]([O-])c3cccc(N)c3)nc2/C=C/C(=O)[O-])cc1.[Li+] (stereo not shown) [SB201146]
- inhibition of the apoptosis delay induced by LTB4 (neutrophils [1]): capable of inhibiting

Structure (SMILES): CCCCC/C=C\C\C=C/C=C/C=C/[C@@H]1O[C@H]1CCCC(=O)OC [LTA4 methyl ester]
- decrease of the binding of 1 nM 3H-LTB4 to Ir-LBP (Ir-LBP [2]): unable to compete

Structure (SMILES): COc1ccc(/C=C/CCCCOc2cccc(OCCCCC(=O)O)c2CCC(=O)O)cc1 [ONO-4057]
- inhibition of endothelial transmigration of neutrophils (neutrophils [3]): totally inhibits

Structure (SMILES): CCCCC[C@H](O)/C=C/C=C\C=C\C=C\[C@@H](O)[C@@H](O)CCCC(=O)O [5(S), 6(R)-Lipoxin A4, 5 (S), 6 (R)-Lipoxin A4]
- decrease of the binding of 1 nM 3H-LTB4 to Ir-LBP (Ir-LBP [2]): unable to compete

Structure (SMILES): CCCCC[C@@H](/C=C/C=C\C/C=C\C/C=C\CCCC(=O)O)OO [15(S)-HpETE, 15(S)-hydroxyperoxyeicosatetraenoic acid]
- decrease of the binding of 1 nM 3H-LTB4 to Ir-LBP (Ir-LBP [2]): unable to compete

Structure (SMILES): CCCCC/C=C\C[C@@H](O)/C=C/C=C\C/C=C\CCCC(=O)O [12(R)-HETE, 12(R)-hydroxyeicosatetraenoic acid]
- decrease of the binding of 1 nM 3H-LTB4 to Ir-LBP (Ir-LBP [2]): approximately 30%

Structure (SMILES): CCCCC/C=C\C[C@@H](O)/C=C/C=C/C=C\[C@@H](O)CCCC(=O)O [^3H-LTB4, tritiated leukotriene B4]
- Kd (R53T): 0.43 nM
- Kd (S124T): 0.45 nM
- Kd (R53T/R73A): 4.23 nM
- Kd (R73A): 0.87 nM

Structure (SMILES): CCCCC/C=C\C\C=C/C=C/C=C/[C@@H](SC[C@H](N)C(=O)O)[C@@H](O)CCCC(=O)O [LTE4]
- decrease of the binding of 1 nM 3H-LTB4 to Ir-LBP (Ir-LBP [2]): approximately 30%

Structure (SMILES): CCCCC/C=C\C[C@@H](O)/C=C/C=C/C=C\[C@@H](O)CCCC(=O)O [LTB4, Leukotriene B4]
- Kd (BLT1): ~1 nM
- Kd (Ir-LBP [4]): 0.59 nM
- apoptosis levels versus untreated controls (Human neutrophils): significantly lower
- IC50 (Ir-LBP [2]; 1 nM 3H-LTB4, unlabelled competitor): 5.7 nM
- Kd (BLT2): ~23 nM

Structure (SMILES): CCCCC/C=C\C\C=C/C=C/C=C/[C@@H](SC[C@H](N)C(=O)NCC(=O)O)[C@@H](O)CCCC(=O)O [LTD4]
- decrease of the binding of 1 nM 3H-LTB4 to Ir-LBP (Ir-LBP [2]): approximately 30%
